Source: patent publication US9447066B2, “Salts and crystal forms” (AskAt Inc., priority 2012, dated 2016)
Entries after “also recorded” stand apart in the source; their conditions may differ. Where two headings read alike, the source gives them in different places.

Assays:
[1] = In vivo pharmacokinetic study in Beagle dogs; conditions: male Beagle dogs; for AUC(0-t): read-out: AUC0-24h; for time-course of mean plasma concentration in comparison with API: oral capsule, FIG. 10
Description: In vivo pharmacokinetic study was carried out in Beagle dogs.
Male Beagle dogs were given single oral dose of the test articles by gelatin capsule formulation at a dose of 5 mg/kg. The actual weight of the test articles in the gelatin capsule to be administered to each animal was calculated based on the body weight measured just before the administration.
Following dosing, blood was collected from the external jugular vein of animals at 0, 0.25, 0.5, 1, 2, 4, 6, 8, 12, 24, 48, 72, 96, 120, 144, 168, […], 288, and 360 hour after administration. Approximately 1 mL of blood will be collected into tubes containing heparin-Na.
On the day of administration, food was given to the animals after 6-hour blood sampling.
The drug concentrations in dog plasma were determined with the validated bioanalytical assay procedures. PK parameters were determined with non-compartmental analysis.

[2] = Intrinsic dissolution experiments; assay type: physicochemical; conditions: for intrinsic dissolution rate, comparison in words: pH 6.8 buffer and water; for time to plateau / complete dissolution of tablet: pH 6.8 buffer (neutral media)
Description: Intrinsic dissolution experiments were performed on the free acid, the meglumine salt, and the potassium salt. The measurements were carried out in pH 6.8 (0.05 M) phosphate buffer and water.
The press used for tablet preparation for intrinsic dissolution rate measurements was a mini-IDR compression system (pION/Heath Scientific). Approximately 11 mg of material was pressed in the cylindrical hole of a passivated stainless steel die, to a uniform, flat surface, with an exposed area of 0.072 cm^2. The pressure applied was approximately 50 bar for 3-5 min. The sample die was inserted in a cylindrical Teflon rotating disk carrier containing an embedded magnetic stirring bar at its base. The die/stirrer assembly was placed in a flat bottomed glass vial, ready for dissolution analysis.
The dissolution rate was measured in 20 ml of solvent (medium) and the path length of the UV meter was 2 mm. Applied stirring speed during measurement was 100 rpm. Measurements were performed at 20° C.

[3] = Solid-state stability at 40° C. and 75% relative humidity; assay type: physicochemical; conditions: 75% RH, 1 to 4 weeks
Description: The solid-state stabilities were assessed as follows: HPLC vials, containing approximately 5 mg of material, were placed in the climate chamber at 40° C. and 75% relative humidity. The samples were analyzed by XRPD and HPLC (both purity and chiral) at time points of 1, 2, 3 and 4 weeks. For each week a separate vial was prepared.

[4] = Quantitative Solubility Assessment; assay type: physicochemical; conditions: pH 6.8 phosphate buffer (0.05 M) and water, thermodynamic from solid; neutral to basic environment
Description: Quantitative Solubility Assessment were performed on the free acid, the meglumine salt, and the potassium salt. The measurements were carried out in pH 6.8 phosphate buffer (0.05M) and water.
A standard 1.8 ml screw cap vial was charged with the material, each solvent (medium) and a magnetic stirring bar. The vials were subsequently closed and equilibrated at the ambient temperature for 24 h while stirring.
The liquid part was retrieved with a syringe and filtrated (0.5 micron filter); the isolated mother liquors were diluted to two dilutions selected according to the calibration curve. Quantities of the API in the diluted solutions were determined via HPLC analysis (DAD). The calibration curve was obtained from two independently prepared stock solutions of the API in 50% water/50% acetonitrile.

[5] = DVS analysis (moisture sorption); assay type: physicochemical
Description: Moisture sorption isotherms of small samples were obtained using a DVS-1 system from Surface Measurement Systems (London, UK) with an accuracy of 0.1 μg. The relative humidity cycled between 45 and 95% RH (sorption), 95 to 0% RH (desorption) and 0 to 45% (sorption) at a constant temperature of 25° C. with a hold time of 60 minutes per step (10% relative humidity step). At the end of the DVS experiment the sample was measured by XRPD.
The XRPD pattern of the sample after DVS measurement was not changed.

[6] = Slurry experiments (physical stability in solvents); assay type: physicochemical; conditions: ethanol, ethyl acetate, n-heptane; 25° C.; 2 weeks
Description: The slurry experiments of the meglumine salt were performed; the materials (15-30 mg) were weighed into 1.8 ml vials, charged with a stirring bar and the solvent (ethanol, ethyl acetate and n-heptane) and the slurries were placed at 25° C. under stirring. After two weeks, the slurries were subject to centrifugation and the liquid was removed with a pipette. The solids were sampled “wet” for XRPD. Subsequently the remaining solids dried under 200 mbar at room temperature for 5 days and all solids were analyzed as “dry” by XRPD.

[7] = Variable humidity XRPD (VH-XRPD); assay type: physicochemical; conditions: 60 to 80% RH, 80 to 10% RH, 10 to 50% RH
Description: (§1) For variable humidity and temperature experiment the ANSYCO HT chamber was used. The material was placed on a fixed sample holder that was mounted inside the chamber. The humidity was applied locally and varied from 10 to 80% (dew point). The temperature variation rate was 10° C./min.
Variable humidity XRPD (VH-XRPD) measurements of the meglumine salt were performed under the humidity of 60 to 80% RH (1st sorption), 80 to 10% RH (desorption) and 10 to 50% (2nd sorption).

[8] = Variable temperature XRPD (VT-XRPD); assay type: physicochemical; conditions: 25° C. to 160° C. and back to 25° C.
Description: as §1
Variable temperature XRPD (VT-XRPD) measurements of the meglumine salt were performed under the temperature of 25° C. to 160° C. (heating) and thereafter decreased to 25° C. (cooling).

[9] = dog, plasma, single oral dose 5 mg/kg, gelatin capsule
[10] = dog, plasma, single oral dose 5 mg/kg, gelatin capsule, read-out: Cmax
[11] = pH 6.8 (0.05 M) phosphate buffer, 20° C., 100 rpm
[12] = single oral dose 5 mg/kg, gelatin capsule

Compound: CC(C)(C)c1cc2c(cc1Cl)C=C(C(=O)O)[C@@H](C(F)(F)F)O2 [Compound A, (S)-6-chloro-7-(1,1-dimethylethyl)-2-trifluoromethyl-2H-1-benzopyran-3-carboxylic acid]
- AUC(0-t) [1, 9]: 287 µg·h/mL
- Cmax [1, 10]: 19700 ng/mL
- concentration after one hour [2, 11]: 27000 ng/mL
- intrinsic dissolution rate, comparison in words [2]: very limited dissolution
- concentration after one hour ([2]; water, 20° C., 100 rpm): about 1 μg/ml

Compound: CC(C)(C)c1cc2c(cc1Cl)C=C(C(=O)[O-])[C@@H](C(F)(F)F)O2.[K+] [potassium salt, (S)-6-chloro-7-(1,1-dimethylethyl)-2-trifluoromethyl-2H-1-benzopyran-3-carboxylic acid potassium salt]
- chemical purity after solid-state stability test [3]: ≥ 99.9%
- enantiomeric purity after solid-state stability test [3]: ≥ 99.9%
- solubility at 24 h [4]: > 120 mg/mL
- AUC(0-t) [1, 9]: 436 µg·h/mL
- Cmax [1, 10]: 28200 ng/mL
- time-course of mean plasma concentration in comparison with API [1]: rapidly increased
- plateau concentration (dissolution of complete tablet) [2, 11]: 370 µg/mL
- time to plateau / complete dissolution of tablet ([2]; 20° C.): ≤ 15 min
- intrinsic dissolution rate, comparison in words ([2]; potassium salt): much better than the free acid; also recorded: dissolved the fastest in all cases
- time to complete dissolution of tablet ([2]; water, 20° C.): ≤ 5 min
- final concentration (complete tablet dissolved) ([2]; water, 20° C., 100 rpm): 400 µg/mL

Compound: (S)-6-chloro-7-(1,1-dimethylethyl)-2-trifluoromethyl-2H-1-benzopyran-3-carboxylic acid meglumine salt
- maximum water uptake ([5]; DVS, at 95% RH, 25° C.): 2.0%
- XRPD pattern of the sample after DVS measurement ([5]; after DVS cycle): not changed
- physical and chemical stability (XRPD, HPLC) [3]: remained physically and chemically stable
- physical stability of wet and dry solids in slurry (XRPD) [6]: physically stable
- time-course of mean plasma concentration in comparison with API [1]: rapidly increased
- AUC0-24h [1, 12]: 381,000 ng · hr/mL
- Cmax [1, 12]: 28,200 ng/mL
- plateau concentration (dissolution of complete tablet) [2, 11]: about 250 μg/ml
- time to plateau / complete dissolution of tablet ([2]; 20° C.): 45 min
- intrinsic dissolution rate, comparison in words [2]: much better than the free acid
- concentration reached in the first 9 min ([2]; water, 20° C., 100 rpm): about 210 μg/ml
- final concentration (complete tablet dissolved) ([2]; water, 20° C., 100 rpm): 250 µg/mL
- crystal form through sorption-desorption-sorption cycle (VH-XRPD) [7]: remained unchanged
- crystal form through heating-cooling cycle (VT-XRPD) [8]: remained unchanged
